Experimental data: BigSolDB 2.1

Conditions: 298.15 K

O=[N+]([O-])c1cccc2ccccc12
Conditions | solubility (mole fraction)
in 2-ethylhexanol | 0.0411
in 2-methyl-1-butanol | 0.0297
in 2-methyl-1-pentanol | 0.0367
in 2-pentanol | 0.0324
in 4-methyl-2-pentanol | 0.0311
in MTBE | 0.214
in acetonitrile | 0.328
in benzene | 0.423
in butyronitrile | 0.383
in cyclohexane | 0.025
in cyclooctane | 0.036
in cyclopentanol | 0.0599
in dibutyl ether | 0.0996
in diethyl ether | 0.237
in diisopropyl ether | 0.104
in ethanol | 0.0277
in ethylene glycol | 0.00463
in isobutanol | 0.0173
in isooctane | 0.0163
in isopentanol | 0.032
in isopropanol | 0.0213
in methylcyclohexane | 0.0277
in n-butanol | 0.0348
in n-decane | 0.0274
in n-decanol | 0.0666
in n-heptane | 0.0198
in n-heptanol | 0.0539
in n-hexadecane | 0.0394
in n-hexane | 0.0174
in n-hexanol | 0.0493
in n-nonane | 0.0252
in n-octane | 0.0223
in n-octanol | 0.0593
in n-pentanol | 0.0424
in n-propanol | 0.0295
in propionitrile | 0.37
in sec-butanol | 0.0331
in tert-butanol | 0.0228
in tert-butylcyclohexane | 0.0303
in toluene | 0.421
in undecane | 0.0293
